The subject of data set [1] is CT26 tumors. In words: Antitumor effects in Balb/c mice with bilateral CT26 tumors. It is filed as in vivo. Particulars: single IT injection, 1 mg 2E′ (+0.2 mg PTX) per mouse. The protocol:
Tumors were established in both flanks simultaneously by subcutaneous inoculation. 1×10^6 of CT26 cells were innoculated in the flank of the right hind limb, and 3×10^5 of CT26 cells in the left flank of the same mouse. […] The sizes of the treated tumor and the non-treated tumor on the left side were measured with a digital caliper every other day, and tumor volumes were calculated as (width^2×length)/2.

For data set [2], the system named is CT26 tumors. The data set is described as follows: Antitumor effects in Balb/c mice with CT26 tumors and delayed rechallenge(s) of live cells. It is filed as in vivo. From the text: Tumor growth was monitored as described above. To test whether antitumor immunity was established, the mice surviving with complete tumor remission by 30 days from the treatment were rechallenged with 1×10^5 live CT26 cells on the contralateral flank. The mice resistant to the first rechallenge were challenged again with 2×10^6 live CT26 cells on 60 days from the treatment. In two separate experiments, surviving Balb/c mice were rechallenged once on 6 or 17 days after the treatment.

A further data set relates to B16F10 cells. The conditions noted are these: 24 h incubation.
Another data set deals with CT26 and B16F10 cells. The data set is described as follows: CRT expression in tumor cells. It is filed as cell-based, mouse. The protocol: 2×10^5 CT26 or B16F10 cells were seeded in a 6-well plate overnight. […] After 6 h or 24 h, the cells were collected, resuspended in staining buffer, incubated with anti-mouse CD16/32 antibody to block non-specific binding of the immunoglobulin to Fc receptors, and stained with Alexa Fluor 488-conjugated anti-CRT monoclonal antibody (ab196158, Abcam). The cells were incubated with 0.5 μg/mL propodium iodide for 1 min prior to the analysis with the BD Accuri C6 Flow Cytometer. For visualizing CRT exposure, 2×10^5 CT26 or B16F10 cells were seeded in a confocal dish, incubated with different treatments for 24 h, washed, stained in the same manner as above, and fixed with 4% paraformaldehyde. Confocal images of the fixed cells were taken with the Nikon A1R confocal microscope (Nikon America Inc., Melville, NY) after brief staining with 2 μg/mL Hoechst 33342.

For the next data set, the target named is T1, TLR-5 (Mus musculus, UniProt Q9JLF7).
T1 construct: host or cells: HEK-Blue mTLR5 cells
T1 sequence (Q9JLF7 27-859): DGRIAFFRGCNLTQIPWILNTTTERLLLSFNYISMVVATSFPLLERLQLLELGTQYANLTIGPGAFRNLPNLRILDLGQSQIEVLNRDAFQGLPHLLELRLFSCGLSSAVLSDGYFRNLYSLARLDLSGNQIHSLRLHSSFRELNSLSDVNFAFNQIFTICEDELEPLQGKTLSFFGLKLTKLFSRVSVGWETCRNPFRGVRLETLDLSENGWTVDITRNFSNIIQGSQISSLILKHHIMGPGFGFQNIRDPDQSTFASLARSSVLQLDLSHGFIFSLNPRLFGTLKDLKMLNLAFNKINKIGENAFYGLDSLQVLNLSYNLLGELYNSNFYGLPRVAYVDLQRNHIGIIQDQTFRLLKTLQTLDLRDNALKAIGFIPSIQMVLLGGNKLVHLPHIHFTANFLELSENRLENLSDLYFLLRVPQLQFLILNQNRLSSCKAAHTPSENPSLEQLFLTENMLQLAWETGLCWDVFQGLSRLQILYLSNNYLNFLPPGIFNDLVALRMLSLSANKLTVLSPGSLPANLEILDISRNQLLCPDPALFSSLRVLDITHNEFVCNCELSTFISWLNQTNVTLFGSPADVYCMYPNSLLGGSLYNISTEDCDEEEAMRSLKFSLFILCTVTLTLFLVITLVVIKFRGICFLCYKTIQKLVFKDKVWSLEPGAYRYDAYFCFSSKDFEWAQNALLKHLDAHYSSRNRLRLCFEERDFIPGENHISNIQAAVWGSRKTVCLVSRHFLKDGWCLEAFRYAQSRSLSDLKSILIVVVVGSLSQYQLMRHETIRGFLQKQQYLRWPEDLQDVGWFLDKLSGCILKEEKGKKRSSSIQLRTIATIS
In words: TLR-5 activation assay, HEK-Blue mTLR5 reporter cells (SEAP). The data set is classed as cell-based. Particulars: TLR reporter cell line, colorimetric SEAP. The protocol: (§1) TLR-5 activation was tested with HEK-Blue™ mTLR5 Cells, TLR-5 reporter cells (Invitrogen, Carlsbad, CA). The TLR-4 reporter cells were plated in a 96 well plate at a density of 100,000 cells per well in RPMI medium. The TLR-5 reporter cells were plated in a 96 well plate with a density of 25,000 cells per well in HEK-Blue™ Detection medium. […] The supernatant was collected for secreted embryonic alkaline phosphatase (SEAP) assay. The absorbance of SEAP was measured at 620 nm.

The subject of data set [3] is DCs or BMDMs co-cultured with CT26 or B16F10 cells. The conditions noted are these: PTX-pretreated CT26 or B16F10 cells, with 7 μg/mL 2E′. The protocol:
CT26 or B16F10 cancer cells were stained with Cell Tracker Green (Invitrogen, Carlsbad, CA) for 1 h and treated with 5 μg/mL PTX for 24 h. […] The co-cultured cells were collected, resuspended in staining buffer, and analyzed by the BD Accuri C6 Flow Cytometer or BD LSRFortessa Flow Cytometer (San Jose, CA, USA). DCs taking up the PTX-treated cancer cells (cancer cell^+ DC or macrophages) was quantified as the percentage of double-positive cells in Cell-Tracker Deep Red-stained BMDC, JAWSII DC or BMDM, and the phagocytized cancer cells as the percentage of double-positive cells in Cell Tracker Green-stained cancer cells.

Another data set relates to CT26 cells. In words: Cytotoxicity, MTT assay. The data set is classed as cell-based, mouse. The protocol: CT26 cells, B16F10 cells, BMDC, or splenocytes were seeded in a 96 well plate at a density of 8,000 cells per well (CT26, B16F10) or 15,000 cells per well (BMBCs, splenocytes). […] After incubation for another 24 h, the cell cytotoxicity was measured by the MTT assay (CT26, B16F10) or propidium iodide (PI) staining (BMDC, splenocytes). […] The values of CI<1, CI=1, and CI>1 represent synergy, additivity, and antagonism, respectively^53.
Background: Tetrazolium dyes change colour on reduction, which living cells bring about.

The next data set addresses T2, TLR-4 (Homo sapiens, UniProt O00206).
T2 construct: host or cells: THP1-XBlue-MD2-CD14 cells
The data set is described as follows: TLR-4 activation assay, THP1-XBlue-MD2-CD14 reporter cells (SEAP). The data set is classed as cell-based. Particulars: at comparable concentrations. The protocol:
as §1

For a further data set, the system named is BMDCs and JAWSII DCs. In words: BMDC and JAWSII DC stimulation (maturation markers, flow cytometry). The data set is classed as cell-based, mouse.
The subject of another data set is BMDCs and BMDMs. In words: Cytokine production from BMDC and BMDM (ELISA). The data set is classed as cell-based, mouse. Particulars: 24 h. The protocol: (§2) Bone marrow-derived dendritic cells (BMDCs) and bone marrow-derived macrophages (BMDMs) were differentiated from mouse bone marrow cells. The bone marrow was collected from the femur of female Balb/c or male C57BL/6 mice (7 weeks old), pipetted several times, and passed through a 100 and 40 μm cell strainer to obtain single-cell suspension. The cells were collected by centrifugation at 500 ref for 8 min, treated with ACK lysis buffer, rinsed, and cultured in Alpha minimum essential medium (MEM-Alpha, ribonucleosides, deoxyribonucleosides, 4 mM L-glutamine, 1 mM sodium pyruvate) supplemented with 100 units/mL penicillin, 100 μg/mL streptomycin, […] β-mercaptoethanol, 20 ng/ml murine GM-CSF and 20% fetal bovine serum. After 7 days, floating or loosely adherent cells were collected by centrifugation and identified as BMDC by APC anti-mouse CD11c antibody labeling. Adherent cells were identified as BMDM by FITC anti-mouse F4/80 antibody labeling.
After 24 h incubation, the cells were collected, resuspended in staining buffer, incubated with Fc-blocking antibody for 15 min at 4° C., labeled with anti-mouse CD11c, CD86, CD40, and MHC-II antibodies for 20 min at 4° C., and analyzed by the BD Accuri C6 Flow Cytometer. […] After 24 h, the media were analyzed for IL-1β and TNF-α by ELISA (Invitrogen, Carlsbad, CA) according to the manufacturer's protocols.
(In general: An ELISA detects its analyte on a solid surface through an enzyme-linked reagent.)

The next data set relates to splenocytes. The data set is described as follows: Cytotoxicity, propidium iodide staining. It is filed as cell-based, mouse. Particulars: at ≤PTX 2 μg/mL (and 2E′ 10 μg/mL). The protocol: The spleen was collected from healthy or tumor-bearing mice to isolate splenocytes. The collected spleens were cut into pieces and filtered through 70 μm and 40 μm cell strainers sequentially to obtain a single-cell suspension. The cell suspension was incubated with 1 mL ammonium-chloride-potassium (ACK) lysis buffer for 3 min to remove red blood cells.

The next data set relates to BMDCs. In words: Cytotoxicity, propidium iodide staining. The conditions noted are these: at ≤PTX 2 μg/mL (and 2E′ 10 μg/mL). The data set is classed as cell-based, mouse. The protocol:
as §2

The values below come from patent publication US20240180849A1, “IMMUNOFUNCTIONAL CARRIER, METHODS OF USES, AND COMPOSITION MATTERS AS AN ANTITUMOR IMMUNOTHERAPY” (priority 2021, published 2024).

T2 sequence (O00206 24-839): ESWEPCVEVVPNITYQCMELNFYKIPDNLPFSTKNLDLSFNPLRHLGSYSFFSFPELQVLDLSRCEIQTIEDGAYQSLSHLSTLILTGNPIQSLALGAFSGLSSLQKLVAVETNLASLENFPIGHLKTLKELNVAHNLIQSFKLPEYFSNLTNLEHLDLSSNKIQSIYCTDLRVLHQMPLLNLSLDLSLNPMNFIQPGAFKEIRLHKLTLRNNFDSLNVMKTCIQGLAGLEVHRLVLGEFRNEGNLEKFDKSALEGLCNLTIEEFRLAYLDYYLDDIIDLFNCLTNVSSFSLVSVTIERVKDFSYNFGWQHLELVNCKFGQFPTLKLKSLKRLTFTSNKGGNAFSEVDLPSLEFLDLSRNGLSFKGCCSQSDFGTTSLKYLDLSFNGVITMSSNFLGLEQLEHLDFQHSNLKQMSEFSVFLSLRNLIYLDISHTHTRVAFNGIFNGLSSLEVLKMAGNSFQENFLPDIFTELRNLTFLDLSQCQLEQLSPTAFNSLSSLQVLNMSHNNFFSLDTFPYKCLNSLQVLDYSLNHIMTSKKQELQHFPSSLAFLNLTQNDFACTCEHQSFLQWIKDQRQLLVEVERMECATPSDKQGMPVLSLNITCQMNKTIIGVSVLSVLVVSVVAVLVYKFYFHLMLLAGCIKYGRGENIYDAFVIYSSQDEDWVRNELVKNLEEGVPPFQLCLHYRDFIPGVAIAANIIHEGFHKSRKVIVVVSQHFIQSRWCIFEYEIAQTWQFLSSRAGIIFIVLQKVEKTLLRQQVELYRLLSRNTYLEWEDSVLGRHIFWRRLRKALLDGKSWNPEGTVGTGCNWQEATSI
T2 sequence (Q9Y6Y9 17-160 partner limits assumed): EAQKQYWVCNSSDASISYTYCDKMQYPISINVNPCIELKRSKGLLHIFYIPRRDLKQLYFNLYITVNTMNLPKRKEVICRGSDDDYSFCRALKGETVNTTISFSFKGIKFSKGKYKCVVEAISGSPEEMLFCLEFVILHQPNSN

For the compound “Polyethyleneimine-Lithocholic Acid Conjugate [2E′]”, in the data set on CT26 tumors [1], the “growth of untreated distant tumors vs D5W” value is listed as “the difference was insignificant” and the “mice with complete regression (CR) of the treated tumors” value is given as 60%. The “mice with CR (tumor-free)” value with CT26 tumors [2] (1 mg 2E′, 0.2 mg/mL PTX, 0.67 mg siRNA, single IT, n=8) is on record as 50%. Moreover, the “animals with CR of the treated tumors” value with CT26 tumors [2] (1.4 mg 2E′ (+0.2 mg PTX) per mouse, single IT) worked out at 40%. Besides, the “tumor-free mice in which growth of rechallenged tumor was prevented” value in the data set with CT26 tumors [2] (1.4 mg 2E′ (+0.2 mg PTX), rechallenge with live CT26 cells day 17) is reported as “one of the two”. Moreover, the “mice with growth of primary tumors inhibited” value in the data set on CT26 tumors [2] (2.7 mg 2E′ (+0.4 mg PTX) per mouse, single IT) is recorded as 57%. The “mice with no tumor growth of untreated distant tumor” value with CT26 tumors [2] (2.7 mg 2E′ (+0.4 mg PTX), distant tumor inoculated 6 days after treatment) was found to be 57%. Further, the “tumor growth after second rechallenge” value in the data set with CT26 tumors [2] (2×10^6 live CT26 cells) is “exponential tumor growth in 10-15 days after the second challenge”. Further, the “toxicity to B16F10 cells relative to BMDCs” value with B16F10 cells was “more toxic to CT26 and B16F10 cells than to bone marrow-derived DCs”. In addition, the “cell surface calreticulin (CRT) exposure” value in the data set on CT26 and B16F10 cells is listed as “exposed the cell surface calreticulin (CRT)”. Moreover, at TLR-5, the TLR-5 signaling entry was “activated TLR-5 signaling”. In addition, the “fractions of DCs or BMDMs taking up cancer cells and of cancer cells taken up” value in data set [3] is given as “substantially increased”. Besides, the “toxicity to CT26 cells relative to normal splenocytes” value with CT26 cells is on record as “greater toxicity to CT26 cells than normal splenocytes”. Further, the “toxicity to CT26 cells relative to BMDCs” value with CT26 cells (24 h incubation) was “more toxic to CT26 and B16F10 cells than to bone marrow-derived DCs”. Further, the TLR-4 signaling result at TLR-4 was “Neither 2E′ nor PEI activated TLR-4 signaling”. For the same compound, the “maturation of DCs” value in the data set with BMDCs and JAWSII DCs (BMDCs, JAWSII DCs, 24 h) is “induced the maturation of BMDCs and JAWSII DCs”. Also, the “immunostimulatory responses relative to PEI” value in the data set with BMDCs and JAWSII DCs (all tests: DC maturation, TNF-α/IL-1β, TLR-5, CRT) is given as “induced greater responses than PEI”. Moreover, the “TNF-α and IL-1β production/secretion” value in the data set on BMDCs and BMDMs is “promoted the production”.
Regarding `CC(=O)O[C@H]1C(=O)[C@@]2(C)[C@H]([C@H](OC(=O)c3ccccc3)[C@]3(O)C[C@H](OC(=O)[C@H](O)[C@@H](NC(=O)c4ccccc4)c4ccccc4)C(C)=C1C3(C)C)[C@]1(OC(C)=O)CO[C@@H]1C[C@@H]2O` [PTX, paclitaxel], the cytotoxicity to splenocytes entry in the data set with splenocytes is on record as “did not show significant cytotoxicity”. In addition, the “cytotoxicity to BMDCs” value in the data set on BMDCs is “did not show significant cytotoxicity”.
